Laboratory results reported in article PMC9952066 (2023).

Columns and labels:
[1] = system: FAM-labeled FEN1 rG4 (RNA, G4) AGGGGCCUGCGGGGACCUGGUGUGGGUGGAGUGGGGAC; assay: native PAGE mobility (G4 unfolding); conditions: 100 mM KCl, 12 mM NaCl; 100 mM KCl in gel; 12% gel, 4 °C; RNA 5 μM; TMPyP4 unfolds rG4
[2] = system: r-PQS4 (FEN1 rG4) (RNA, G4) AGGGGCCUGCGGGGACCUGGUGUGGGUGGAGUGGGGAC; assay: UV-Vis absorption shift; conditions: 100 mM KCl, 12 mM NaCl; 50 mM Tris-HCl pH 7.4; pre-folded RNA 5 μM; TMPyP4 printed as 100 mM
[3] = system: r-PQS4 (FEN1 rG4) (RNA, G4) AGGGGCCUGCGGGGACCUGGUGUGGGUGGAGUGGGGAC; assay: CD titration (loss of 265 nm ellipticity); conditions: 100 mM KCl, 12 mM NaCl; 50 mM Tris-HCl pH 7.4; RNA 5 μM; TMPyP4 added before annealing (legend: pre-folded); disrupts G4

Measured: binding

C[n+]1ccc(-c2c3nc(c(-c4cc[n+](C)cc4)c4ccc([nH]4)c(-c4cc[n+](C)cc4)c4nc(c(-c5cc[n+](C)cc5)c5ccc2[nH]5)C=C4)C=C3)cc1
yes: [1] | [2] | [3]
